We go through seven compounds from PMC6199744, “Development of Chemical Proteomics for the Folateome and Analysis of the Kinetoplastid Folateome” (ACS Infectious Diseases, 2018).

The structures appear in SMILES notation. Where two headings read alike, the source gives them in different places.

What all share (type): binding
In assay [1] the target is T1, HeLa cell extract proteins (Homo sapiens, UniProt P11413).
T1 construct: endogenous in cells; host or cells: HeLa cell extract

Assay [2] concerns the target T2, HeLa cell extract proteins (Homo sapiens, UniProt O95382).
T2 construct: endogenous in cells; host or cells: HeLa cell extract
T2 sequence (O95382 1-1288): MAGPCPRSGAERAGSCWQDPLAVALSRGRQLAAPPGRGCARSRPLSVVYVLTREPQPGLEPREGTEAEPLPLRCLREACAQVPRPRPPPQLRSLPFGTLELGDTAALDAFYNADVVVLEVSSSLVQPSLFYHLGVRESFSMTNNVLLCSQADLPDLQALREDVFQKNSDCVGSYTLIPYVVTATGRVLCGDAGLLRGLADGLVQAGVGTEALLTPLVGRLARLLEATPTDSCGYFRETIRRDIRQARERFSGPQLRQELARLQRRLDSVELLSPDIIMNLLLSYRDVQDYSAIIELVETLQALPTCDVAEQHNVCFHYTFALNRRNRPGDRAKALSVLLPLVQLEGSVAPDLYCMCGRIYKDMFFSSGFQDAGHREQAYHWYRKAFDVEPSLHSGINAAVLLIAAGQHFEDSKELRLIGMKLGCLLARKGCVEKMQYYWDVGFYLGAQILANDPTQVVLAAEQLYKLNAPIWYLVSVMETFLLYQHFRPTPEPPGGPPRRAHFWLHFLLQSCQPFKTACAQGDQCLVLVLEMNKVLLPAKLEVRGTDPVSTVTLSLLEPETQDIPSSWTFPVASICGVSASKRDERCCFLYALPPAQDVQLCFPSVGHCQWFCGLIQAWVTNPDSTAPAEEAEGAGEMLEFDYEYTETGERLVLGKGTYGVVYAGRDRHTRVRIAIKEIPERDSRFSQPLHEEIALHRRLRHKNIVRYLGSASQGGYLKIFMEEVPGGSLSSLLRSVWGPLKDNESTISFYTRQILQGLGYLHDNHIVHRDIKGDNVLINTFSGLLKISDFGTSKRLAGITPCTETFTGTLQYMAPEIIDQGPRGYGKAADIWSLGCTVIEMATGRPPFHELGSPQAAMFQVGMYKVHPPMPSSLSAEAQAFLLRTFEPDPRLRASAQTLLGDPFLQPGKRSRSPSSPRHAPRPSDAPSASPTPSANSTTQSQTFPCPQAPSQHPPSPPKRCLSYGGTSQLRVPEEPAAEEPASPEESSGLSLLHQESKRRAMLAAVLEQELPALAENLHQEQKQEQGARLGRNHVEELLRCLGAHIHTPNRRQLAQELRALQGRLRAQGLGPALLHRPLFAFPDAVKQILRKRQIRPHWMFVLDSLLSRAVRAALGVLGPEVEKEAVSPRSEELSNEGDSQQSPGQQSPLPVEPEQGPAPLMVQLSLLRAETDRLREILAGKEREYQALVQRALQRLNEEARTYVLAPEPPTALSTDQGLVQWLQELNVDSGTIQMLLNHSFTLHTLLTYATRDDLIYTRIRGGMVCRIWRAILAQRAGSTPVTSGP

Assay [3] concerns the target T3, HeLa cell extract proteins (Homo sapiens, UniProt Q14764).
T3 construct: endogenous in cells; host or cells: HeLa cell extract

Assay [4] addresses T4, HeLa cell extract proteins (Homo sapiens, UniProt P25787).
T4 construct: endogenous in cells; host or cells: HeLa cell extract
T4 sequence (P25787 1-234): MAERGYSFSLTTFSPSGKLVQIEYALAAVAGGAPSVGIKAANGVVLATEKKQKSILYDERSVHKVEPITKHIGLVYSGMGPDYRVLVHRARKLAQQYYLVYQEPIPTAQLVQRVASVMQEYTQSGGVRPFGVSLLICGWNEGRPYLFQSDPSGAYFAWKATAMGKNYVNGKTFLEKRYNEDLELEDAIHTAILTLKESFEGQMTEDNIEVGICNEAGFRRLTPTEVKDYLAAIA

The target in assay [5] is T5, HeLa cell extract proteins (Homo sapiens, UniProt P00558).
T5 construct: endogenous in cells; host or cells: HeLa cell extract
T5 sequence (P00558 1-417): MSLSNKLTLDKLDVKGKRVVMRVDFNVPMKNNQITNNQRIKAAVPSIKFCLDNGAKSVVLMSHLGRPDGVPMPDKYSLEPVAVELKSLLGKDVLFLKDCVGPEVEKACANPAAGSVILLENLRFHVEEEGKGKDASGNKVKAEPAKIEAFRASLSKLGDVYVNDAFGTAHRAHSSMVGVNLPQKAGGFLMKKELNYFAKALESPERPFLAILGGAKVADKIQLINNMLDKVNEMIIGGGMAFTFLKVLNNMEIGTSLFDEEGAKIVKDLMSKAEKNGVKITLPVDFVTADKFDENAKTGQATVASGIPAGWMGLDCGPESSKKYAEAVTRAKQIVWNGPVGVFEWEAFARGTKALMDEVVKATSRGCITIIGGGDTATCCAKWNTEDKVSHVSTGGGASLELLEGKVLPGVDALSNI

[6] abbreviates: HeLa, protein PGK1 (PHOSPHOGLYCERATE KINASE 1.).

T1 sequence (P11413 whole entry): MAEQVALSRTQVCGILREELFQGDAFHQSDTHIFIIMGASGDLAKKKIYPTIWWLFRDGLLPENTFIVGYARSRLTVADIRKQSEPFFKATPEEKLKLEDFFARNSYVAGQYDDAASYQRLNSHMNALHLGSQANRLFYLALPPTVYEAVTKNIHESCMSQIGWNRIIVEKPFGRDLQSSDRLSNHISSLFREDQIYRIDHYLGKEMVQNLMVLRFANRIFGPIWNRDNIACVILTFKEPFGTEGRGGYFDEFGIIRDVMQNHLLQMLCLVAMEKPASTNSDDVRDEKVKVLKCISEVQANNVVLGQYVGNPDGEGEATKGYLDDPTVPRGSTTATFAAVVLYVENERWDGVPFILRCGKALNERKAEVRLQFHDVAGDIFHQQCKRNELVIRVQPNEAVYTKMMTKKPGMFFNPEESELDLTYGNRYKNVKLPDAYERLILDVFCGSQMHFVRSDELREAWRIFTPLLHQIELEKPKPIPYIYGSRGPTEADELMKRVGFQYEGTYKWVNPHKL
T3 sequence (Q14764 whole entry): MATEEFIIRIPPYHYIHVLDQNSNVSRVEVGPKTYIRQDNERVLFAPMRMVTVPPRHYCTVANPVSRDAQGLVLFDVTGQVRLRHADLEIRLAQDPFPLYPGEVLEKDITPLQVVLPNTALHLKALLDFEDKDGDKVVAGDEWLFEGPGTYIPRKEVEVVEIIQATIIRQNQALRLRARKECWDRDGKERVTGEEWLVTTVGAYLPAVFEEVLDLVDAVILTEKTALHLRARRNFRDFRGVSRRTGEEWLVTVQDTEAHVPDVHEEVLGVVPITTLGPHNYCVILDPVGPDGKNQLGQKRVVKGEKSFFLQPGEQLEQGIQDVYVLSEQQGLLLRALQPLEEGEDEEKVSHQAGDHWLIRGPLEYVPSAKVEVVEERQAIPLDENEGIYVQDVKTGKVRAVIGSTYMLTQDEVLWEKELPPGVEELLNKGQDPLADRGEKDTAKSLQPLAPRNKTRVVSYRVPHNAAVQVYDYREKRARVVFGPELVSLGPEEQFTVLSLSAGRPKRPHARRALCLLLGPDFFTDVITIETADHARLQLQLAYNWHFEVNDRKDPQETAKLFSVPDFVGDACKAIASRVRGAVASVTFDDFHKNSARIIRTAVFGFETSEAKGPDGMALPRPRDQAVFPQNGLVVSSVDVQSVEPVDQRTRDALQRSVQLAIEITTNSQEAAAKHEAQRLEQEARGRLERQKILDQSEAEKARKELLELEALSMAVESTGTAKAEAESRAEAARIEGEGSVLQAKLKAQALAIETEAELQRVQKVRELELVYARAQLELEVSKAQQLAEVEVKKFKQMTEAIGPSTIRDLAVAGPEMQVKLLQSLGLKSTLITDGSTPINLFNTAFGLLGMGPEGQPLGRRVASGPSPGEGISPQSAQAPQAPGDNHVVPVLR

Regarding `Nc1nc2cccc(-c3ccccc3)c2n1Cc1ccc(Cl)c(Cl)c1` [compound 3], the “fold changes relative to vehicle control” value in assay [1] (protein G6PD, HeLa) turned out to be 1.03; in assay [2] (HeLa, protein MAP3K6), 0.97; in assay [3] (HeLa, protein MVP) it was 1.02; in assay [4] (protein PSMA2, HeLa) it was 0.95; in assay [5] (HeLa, protein PGK1 (PHOSPH[…] 1.)) it was 0.8 fold.
For the compound `NCCOCCOCC(=O)Nc1nc2ncc(CNc3ccc(C(=O)NC(CCC(=O)O)C(=O)O)cc3)nc2c(=O)[nH]1` (centres unmarked) [compound 6], the “fold changes relative to vehicle control” value in assay [1] (HeLa, protein G6PD) is listed as 1.32; in assay [2] (HeLa, protein MAP3K6) it was 1.19; in assay [3] (HeLa, protein MVP), 0.96; in assay [4] (HeLa, captured protein PSMA2), 1.05; in assay [5] (HeLa, protein PGK1), 1.28.
In the case of `Nc1nc2[nH]cc(CCc3ccc(C(=O)N[C@@H](CCC(=O)O)C(=O)O)cc3)c2c(=O)[nH]1` [PTX, pemetrexed], the “fold changes relative to vehicle control” value in assay [1] stood at 1.21; in assay [2] it was 1.16; in assay [3] it was 0.98; in assay [4], 1.02; in assay [5], 1.11.
In the case of `Nc1nc2c(c(=O)[nH]1)N(C=O)C(CNc1ccc(C(=O)N[C@@H](CCC(=O)O)C(=O)O)cc1)CN2` (some centres unmarked) [LEU, leucovorin], the “fold changes relative to vehicle control” value in assay [1] (HeLa, protein G6PD) stood at 1.12; in assay [2] (HeLa, protein MAP3K6), 0.99; in assay [3] (HeLa, protein MVP) it was 0.99; in assay [4] (HeLa, captured protein PSMA2), 0.98; in assay [5] (HeLa, protein PGK1) it was 1.1.
For `CCCCCCOc1ccc(Cc2cnc(N)nc2N)cc1` [compound 1], the “fold changes relative to vehicle control” value in assay [1] (protein G6PD, HeLa) is on record as 1.15; in assay [2] (HeLa, protein MAP3K6) it was 0.99; in assay [3] (HeLa, protein MVP), 1.06; in assay [4] (protein PSMA2, HeLa), 1.14; in assay [5] (setting [6]), 1.5 fold.
Consider `NCCCNc1ccc(C(=O)NC(CCC(=O)O)C(=O)O)cc1` (centres unmarked) [compound 7], for which the “fold changes relative to vehicle control” value in assay [1] (HeLa, protein G6PD) came to 1.09; in assay [2] (HeLa, protein MAP3K6), 1.16; in assay [3] (HeLa, protein MVP), 1.28; in assay [4] (HeLa, captured protein PSMA2), 1.02; in assay [5] (HeLa, protein PGK1), 0.92.
Consider `CCCCCCOc1cccc(Cc2cnc(N)nc2N)c1` [compound 2], for which the “fold changes relative to vehicle control” value in assay [1] (protein G6PD, HeLa) worked out at 1.89; in assay [2] (HeLa, protein MAP3K6), 0.97; in assay [3] (HeLa, protein MVP), 1.23; in assay [4] (protein PSMA2, HeLa), 1.17; in assay [5] (setting [6]), 2.59 fold.
